Measurements as given in US11051515B2, “3-acyl-benzamides and their use as herbicides” (Bayer Aktiengesellschaft, priority 2017, dated 2021).

Tests used:
ALOMY = assay: Pre-emergence action against ALOMY; type: in vivo, Alopecurus myosuroides; conditions: dosage 320 g/ha; pre-emergence; scored visually after 3 weeks vs untreated controls; 100% = plants have died, 0% = like control plants
In short: (§1)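 Seeds sown in sandy loam in wood-fiber pots and covered with soil. Greenhouse growth; visual damage scored after 3 weeks versus untreated controls (100% = dead, 0% = like control).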

CYPES [1] = assay: Pre-emergence action against CYPES; type: in vivo, Cyperus esculentus; conditions: pre-emergence, dosage 320 g/ha, scored visually after 3 weeks vs untreated controls
In short: as §1

ECHCG [2] = assay: Pre-emergence action against ECHCG; type: in vivo, Echinochloa crus-galli; conditions: pre-emergence, dosage 320 g/ha, scored visually after 3 weeks vs untreated controls
In short: as §1

LOLMU = assay: Pre-emergence action against LOLMU; type: in vivo, Lolium multiflorum; conditions: dosage 320 g/ha, scored visually after 3 weeks vs untreated controls
Text: Seeds of monocotyledonous and dicotyledonous weed plants and crop plants are laid out in sandy loam soil in wood-fiber pots and covered with soil. The compounds of the invention, formulated in the form of wettable powders (WP) or as emulsion concentrates (EC), are then applied to the surface of the covering soil in the form of an aqueous suspension or emulsion at a water application rate equating to […], with addition of 0.2% wetting agent. After the treatment, the pots are placed in a greenhouse and kept under good growth conditions for the trial plants. The damage to the test plants is scored visually after a test period of 3 weeks by comparison with untreated controls (herbicidal activity in percent (%): 100% activity=the plants have died, 0% activity=like control plants).

SETVI [3] = assay: Pre-emergence action against SETVI; type: in vivo, Setaria viridis; conditions: pre-emergence, dosage 320 g/ha, scored visually after 3 weeks vs untreated controls
In short: as §1

ABUTH [4] = assay: Pre-emergence action against ABUTH; type: in vivo, Abutilon theophrasti; conditions: pre-emergence, dosage 320 g/ha, scored visually after 3 weeks vs untreated controls
In short: as §1

AMARE [5] = assay: Pre-emergence action against AMARE; type: in vivo, Amaranthus retroflexus; conditions: pre-emergence, dosage 320 g/ha, scored visually after 3 weeks vs untreated controls
In short: as §1

MATIN [6] = assay: Pre-emergence action against MATIN; type: in vivo, Matricaria inodora; conditions: Dosage 320 g/ha, pre-emergence
In short: as §1

POLCO [7] = assay: Pre-emergence action against POLCO; type: in vivo, Polygonum convolvulus; conditions: Dosage 320 g/ha, pre-emergence
In short: as §1

STEME [8] = assay: Pre-emergence action against STEME; type: in vivo, Stellaria media; conditions: Dosage 320 g/ha, pre-emergence
In short: as §1

VIOTR [9] = assay: Pre-emergence action against VIOTR; type: in vivo, Viola tricolor; conditions: Dosage 320 g/ha, pre-emergence
In short: as §1

VERPE [10] = assay: Pre-emergence action against VERPE; type: in vivo, Veronica persica; conditions: Dosage 320 g/ha, pre-emergence
In short: as §1

CYPES [11] = assay: Post-emergence action against CYPES; type: in vivo, Cyperus esculentus; conditions: post-emergence, dosage 80 g/ha, visual assessment about 3 weeks after treatment vs untreated controls
In short: (§2)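 Weeds grown in sandy loam in greenhouse, treated at one-leaf stage (2–3 weeks after sowing) with WP or EC formulations sprayed as aqueous suspension/emulsion at 600 to […] water with 0.2% wetting agent. Visual rating after about 3 weeks versus untreated controls, as % herbicidal action (100% = plants dead, 0% = like control).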

ECHCG [12] = assay: Post-emergence action against ECHCG; type: in vivo, Echinochloa crus-galli; conditions: post-emergence, dosage 80 g/ha, visual assessment about 3 weeks after treatment vs untreated controls
In short: as §2

SETVI [13] = assay: Post-emergence action against SETVI; type: in vivo, Setaria viridis; conditions: post-emergence, dosage 80 g/ha, visual assessment about 3 weeks after treatment vs untreated controls
In short: as §2

ABUTH [14] = assay: Post-emergence action against ABUTH; type: in vivo, Abutilon theophrasti; conditions: post-emergence, dosage 80 g/ha, visual assessment about 3 weeks after treatment vs untreated controls
In short: as §2

AMARE [15] = assay: Post-emergence action against AMARE; type: in vivo, Amaranthus retroflexus; conditions: post-emergence, dosage 80 g/ha, visual assessment about 3 weeks after treatment vs untreated controls
In short: as §2

MATIN [16] = assay: Post-emergence action against MATIN; type: in vivo, Matricaria inodora; conditions: post-emergence, dosage 80 g/ha, visual assessment about 3 weeks after treatment vs untreated controls
In short: as §2

PHBPU = assay: Post-emergence action against PHBPU; type: in vivo, Pharbitis purpurea; conditions: post-emergence, dosage 80 g/ha
In short: as §2

POLCO [17] = assay: Post-emergence action against POLCO; type: in vivo, Polygonum convolvulus; conditions: post-emergence, dosage 80 g/ha
In short: as §2

STEME [18] = assay: Post-emergence action against STEME; type: in vivo, Stellaria media; conditions: post-emergence, dosage 80 g/ha
In short: as §2

VIOTR [19] = assay: Post-emergence action against VIOTR; type: in vivo, Viola tricolor; conditions: post-emergence, dosage 80 g/ha
In short: as §2

VERPE [20] = assay: Post-emergence action against VERPE; type: in vivo, Veronica persica; conditions: dosage 80 g/ha
In short: as §2

AVEFA = assay: Pre-emergence action against AVEFA; type: in vivo, Avena fatua; conditions: dosage 320 g/ha, scored visually after 3 weeks vs untreated controls
In short: as §1

CCn1nnnc1NC(=O)c1ccc(C(F)(F)F)c(C(C)=O)c1OC [2-48]
100: Post-emergence action against PHBPU (PHBPU) | Post-emergence action against STEME (STEME [18]) | Post-emergence action against VIOTR (VIOTR [19])
80%: Pre-emergence action against LOLMU (herbicidal activity) (LOLMU) | Post-emergence action against SETVI (herbicidal action in percent) (SETVI [13])
90%: Pre-emergence action against ALOMY (herbicidal activity in percent) (ALOMY) | Pre-emergence action against POLCO (POLCO [7]) | Pre-emergence action against STEME (STEME [8]) | Post-emergence action against ECHCG (herbicidal action in percent) (ECHCG [12]) | Post-emergence action against AMARE (herbicidal action in percent) (AMARE [15])
80: Post-emergence action against POLCO (POLCO [17]) | Post-emergence action against VERPE (VERPE [20])
100%: Pre-emergence action against CYPES (herbicidal activity) (CYPES [1]) | Pre-emergence action against ECHCG (herbicidal activity) (ECHCG [2]) | SETVI (Table B8, pre-emergence herbicidal activity) (SETVI [3]) | Pre-emergence action against ABUTH (herbicidal activity) (ABUTH [4]) | Pre-emergence action against AMARE (herbicidal activity) (AMARE [5]) | Pre-emergence action against MATIN (MATIN [6]) | Pre-emergence action against VIOTR (VIOTR [9]) | Pre-emergence action against VERPE (VERPE [10]) | Post-emergence action against CYPES (herbicidal action in percent) (CYPES [11]) | Post-emergence action against ABUTH (herbicidal action in percent) (ABUTH [14]) | Post-emergence action against MATIN (herbicidal action in percent) (MATIN [16])

CCn1nnnc1NC(=O)c1ccc(Cl)c(C(C)=O)c1Cl [2-114]
80: Post-emergence action against VERPE (VERPE [20])
100%: Pre-emergence action against ECHCG (herbicidal activity) (ECHCG [2]) | Pre-emergence action against ABUTH (herbicidal activity) (ABUTH [4]) | Pre-emergence action against AMARE (herbicidal activity) (AMARE [5]) | Pre-emergence action against VIOTR (VIOTR [9]) | Post-emergence action against AMARE (herbicidal action in percent) (AMARE [15])
90%: Pre-emergence action against CYPES (herbicidal activity) (CYPES [1]) | SETVI (Table B8, pre-emergence herbicidal activity) (SETVI [3]) | Pre-emergence action against MATIN (MATIN [6]) | Pre-emergence action against STEME (STEME [8]) | Pre-emergence action against VERPE (VERPE [10]) | Post-emergence action against CYPES (herbicidal action in percent) (CYPES [11]) | Post-emergence action against ECHCG (herbicidal action in percent) (ECHCG [12]) | Post-emergence action against ABUTH (herbicidal action in percent) (ABUTH [14])
80%: Pre-emergence action against ALOMY (herbicidal activity in percent) (ALOMY) | Pre-emergence action against AVEFA (herbicidal activity) (AVEFA) | Pre-emergence action against LOLMU (herbicidal activity) (LOLMU) | Post-emergence action against MATIN (herbicidal action in percent) (MATIN [16])
100: Post-emergence action against STEME (STEME [18]) | Post-emergence action against VIOTR (VIOTR [19])
90: Post-emergence action against PHBPU (PHBPU) | Post-emergence action against POLCO (POLCO [17])

CCC(=O)c1c(Cl)ccc(C(=O)Nc2nnnn2CC)c1Cl [2-115]
90: Post-emergence action against PHBPU (PHBPU)
100%: Pre-emergence action against ALOMY (herbicidal activity in percent) (ALOMY) | Pre-emergence action against ECHCG (herbicidal activity) (ECHCG [2]) | Pre-emergence action against LOLMU (herbicidal activity) (LOLMU) | Pre-emergence action against ABUTH (herbicidal activity) (ABUTH [4]) | Pre-emergence action against AMARE (herbicidal activity) (AMARE [5]) | Pre-emergence action against MATIN (MATIN [6]) | Pre-emergence action against STEME (STEME [8]) | Pre-emergence action against VIOTR (VIOTR [9]) | Post-emergence action against MATIN (herbicidal action in percent) (MATIN [16])
80%: Pre-emergence action against POLCO (POLCO [7]) | Post-emergence action against CYPES (herbicidal action in percent) (CYPES [11])
100: Post-emergence action against POLCO (POLCO [17]) | Post-emergence action against STEME (STEME [18]) | Post-emergence action against VIOTR (VIOTR [19])
90%: Pre-emergence action against AVEFA (herbicidal activity) (AVEFA) | Pre-emergence action against CYPES (herbicidal activity) (CYPES [1]) | SETVI (Table B8, pre-emergence herbicidal activity) (SETVI [3]) | Pre-emergence action against VERPE (VERPE [10]) | Post-emergence action against ECHCG (herbicidal action in percent) (ECHCG [12]) | Post-emergence action against SETVI (herbicidal action in percent) (SETVI [13]) | Post-emergence action against ABUTH (herbicidal action in percent) (ABUTH [14]) | Post-emergence action against AMARE (herbicidal action in percent) (AMARE [15])
